In general, pIC50 refers to the negative decadic logarithm of the IC50, by convention in mol/L.

These results are taken from article PMC11044151, “Development of Half-Sandwich Ru, Os, Rh, and Ir Complexes Bearing the Pyridine-2-ylmethanimine Bidentate Ligand Derived from 7-Chloroquinazolin-4(3H)-one with Enhanced Antiproliferative Activity” (ACS Omega, 2024).

One data set relates to A549. The experiment in a line: Neutral red uptake antiproliferative assay, A549. The note with it: for pIC50: read-out: IC50 A549, exposure time 72 h, n = 3, 95% CI given; for activity factor IC50(1)/IC50(3a–4d), A549: vs corresponding amine (R)-1 or (S)-1, 72 h. The method, boiled down:
(§1)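 Following overnight attachment, cultures received compound for 70 h, then 1 mM neutral red for 2 h, an ice-cold PBS wash and acidified-ethanol extraction before reading at 540 nm. Medium was glucose-rich DMEM plus GlutaMax, HEPES and 10% serum; IC50 and IC90 were computed from five-parameter logistic curves.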

The next data set deals with Colo205. The experiment in a line: cells. As to conditions: for pIC50: read-out: IC50 Colo205, exposure time 72 h, n = 3, 95% CI given; for activity factor IC50(1)/IC50(3a–4d), Colo205: vs corresponding amine (R)-1 or (S)-1, 72 h. The essentials:
as §1

In another data set the test system is HepG2. The experiment in a line: cells. The note with it: for pIC50: read-out: IC50 HepG2, exposure time 72 h, n = 3, 95% CI given; for activity factor IC50(1)/IC50(3a–4d), HepG2: vs corresponding amine (R)-1 or (S)-1, 72 h. The method, boiled down: as §1
Another data set deals with MCF7. Briefly: cells. The note with it: for pIC50: read-out: IC50 MCF7, exposure time 72 h, n = 3, 95% CI given; for activity factor IC50(1)/IC50(3a–4d), MCF7: vs corresponding amine (R)-1 or (S)-1, 72 h. The essentials:
as §1

The next data set deals with SW620D. The experiment in a line: Neutral red uptake antiproliferative assay, MDR line SW620D. In kind it is cell-based, human. The note with it: for pIC50: exposure time 72 h, n = 3, ABCB1-overexpressing MDR line; for activity factor IC50(1)/IC50(3a–4d), SW620D: vs corresponding amine (R)-1 or (S)-1, 72 h. The method, boiled down:
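Neutral red retention served as the viability end point, with results given as percent of control cells. The lines tested are MDR variants of SW620 overexpressing ABCG2 (SW620C, SW620Mito), ABCC1 (SW620M) or ABCB1 (SW620D).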

A further data set concerns SW620E. Briefly: Neutral red uptake antiproliferative assay, MDR line SW620E. In kind it is cell-based, human. The note with it: for pIC50: exposure time 72 h, n = 3, ABCC1- and ABCB1-overexpressing MDR line; for activity factor IC50(1)/IC50(3a–4d), SW620E: vs corresponding amine (R)-1 or (S)-1, 72 h.
A further data set has as its target T1, KSP (Homo sapiens, UniProt P52732).
T1 construct: purchased Cytoskeleton, Inc
T1 sequence (P52732 1-368 limits assumed): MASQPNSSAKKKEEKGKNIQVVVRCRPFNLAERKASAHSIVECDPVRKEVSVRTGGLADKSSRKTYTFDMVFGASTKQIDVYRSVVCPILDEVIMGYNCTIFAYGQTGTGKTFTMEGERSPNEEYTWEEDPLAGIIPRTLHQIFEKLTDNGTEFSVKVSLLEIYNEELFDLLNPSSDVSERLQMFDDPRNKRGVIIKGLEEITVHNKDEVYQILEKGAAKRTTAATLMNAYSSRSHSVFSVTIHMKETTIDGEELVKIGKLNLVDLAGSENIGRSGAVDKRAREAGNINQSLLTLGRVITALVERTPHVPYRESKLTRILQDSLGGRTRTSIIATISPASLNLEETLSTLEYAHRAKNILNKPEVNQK
Briefly: Kinesin ATPase inhibition (ATP hydrolysis) end-point assay. In kind it is biochemical. As to conditions: for KSP residual activity: 100 nM stated for ispinesib and (R)-1, concentration not restated for the complexes. On the procedure: The mechanism of the anticancer activity of ispinesib is related to the inhibition of the activity of the KSP. Thus, we studied the synthesized compounds’ ability to inhibit KSP activity using the adenosine 5′-triphosphate (ATP) hydrolysis assay.
The potential kinesin modulatory activity of tested compounds was performed using a Kinesin ATPase end-point biochem kit (Cytoskeleton, Inc.). […] The experiment was performed according to the manufacturer’s instructions. One μg of tested kinesin (KSP) was used per reaction. Phosphate release was measured at the absorbance 650 nm using an EnVision multilabel plate reader (PerkinElmer).

Structures are written as SMILES. pIC50: −log10 of the molar value. Where two headings read alike, the source gives them in different places.

On to `CC(C)[C@@H](N=Cc1ccccn1)c1nc2cc(Cl)ccc2c(=O)n1Cc1ccccc1.Cc1ccc(C(C)C)cc1.F[P-](F)(F)(F)(F)F.[Cl-].[Ru+2]` [Compound 3a, [(cym)Ru((R)-2)Cl]PF6], for which, in the data set with A549, the pIC50 was 5.61 and the “activity factor IC50(1)/IC50(3a–4d), A549” value is given as “(0.902)”. For the same compound, in the data set with Colo205, the pIC50 was 5.90 and the “activity factor IC50(1)/IC50(3a–4d), Colo205” value is “(0.085)”. In addition, in the data set with HepG2, the pIC50 was 5.80 and the “activity factor IC50(1)/IC50(3a–4d), HepG2” value was “(0.360)”. Besides, in the data set with MCF7, the pIC50 was 6.07 and the “activity factor IC50(1)/IC50(3a–4d), MCF7” value is reported as “(0.269)”. Besides, in the data set with SW620D, the pIC50 is 5.14 and the “activity factor IC50(1)/IC50(3a–4d), SW620D” value is “(0.155)”. In addition, in the data set with SW620E, the pIC50 is 5.26 and the “activity factor IC50(1)/IC50(3a–4d), SW620E” value is recorded as “(0.151)”. The “KSP inhibitory activity (in words)” value on KSP (100, 300 and 1000 nM) was “nonactive”.

For the compound `CC(C)[C@@H](N=Cc1ccccn1)c1nc2cc(Cl)ccc2c(=O)n1Cc1ccccc1.Cc1ccc(C(C)C)cc1.F[P-](F)(F)(F)(F)F.[Cl-].[Os+2]` [Compound 3b, [(cym)Os((R)-2)Cl]PF6], in the data set on A549, the “increased cytotoxicity vs corresponding amine 1, A549” value (“increased cytotoxicity … A549” below) turned out to be 2 fold; the pIC50 was 5.98; the “activity factor IC50(1)/IC50(3a–4d), A549” value is recorded as “(2.12)”. For the same compound, in the data set with Colo205, the pIC50 was 6.35 and the “activity factor IC50(1)/IC50(3a–4d), Colo205” value was “(0.239)”. Besides, in the data set with HepG2, the “increased cytotoxicity vs corresponding amine 1, HepG2” value is 3 fold; the pIC50 was 6.73; the “activity factor IC50(1)/IC50(3a–4d), HepG2” value was “(3.01)”. In the data set on MCF7, the “increased cytotoxicity vs corresponding amine 1, MCF7” value worked out at 3 fold; the pIC50 was 7.14; the “activity factor IC50(1)/IC50(3a–4d), MCF7” value is “(3.16)”. Also, in the data set with SW620D, the pIC50 is 5.41 and the “activity factor IC50(1)/IC50(3a–4d), SW620D” value is “(0.286)”. For the same compound, in the data set on SW620E, the pIC50 was 5.45 and the “activity factor IC50(1)/IC50(3a–4d), SW620E” value is “(0.237)”. At KSP, this compound gave a KSP residual activity of 71.8%.

As to `CC(C)[C@@H](N=Cc1ccccn1)c1nc2cc(Cl)ccc2c(=O)n1Cc1ccccc1.Cc1c(C)c(C)[c-](C)c1C.F[P-](F)(F)(F)(F)F.[Cl-].[Rh+3]` [Compound 3c, [(Cp*)Rh((R)-2)Cl]PF6], in the data set on A549, the pIC50 was 5.94 and the “activity factor IC50(1)/IC50(3a–4d), A549” value is reported as “(1.90)”. Further, the “increased cytotoxicity … A549” value with A549 (rounded value) is on record as 2 fold. Also, in the data set on Colo205, the pIC50 was 6.86 and the “activity factor IC50(1)/IC50(3a–4d), Colo205” value is “(0.775)”. For the same compound, in the data set on HepG2, the pIC50 was 6.16 and the “activity factor IC50(1)/IC50(3a–4d), HepG2” value was “(0.821)”. In the data set on MCF7, the pIC50 was 6.45 and the “activity factor IC50(1)/IC50(3a–4d), MCF7” value is listed as “(0.647)”. For the same compound, in the data set with SW620D, the pIC50 is 5.38 and the “activity factor IC50(1)/IC50(3a–4d), SW620D” value was “(0.268)”. Besides, in the data set on SW620E, the pIC50 is 6.06 and the “activity factor IC50(1)/IC50(3a–4d), SW620E” value is recorded as “(0.949)”. Besides, on KSP, the KSP residual activity is recorded as 47.5%.

Consider `CC(C)[C@@H](N=Cc1ccccn1)c1nc2cc(Cl)ccc2c(=O)n1Cc1ccccc1.Cc1c(C)c(C)[c-](C)c1C.F[P-](F)(F)(F)(F)F.[Cl-].[Ir+3]` [Compound 3d, [(Cp*)Ir((R)-2)Cl]PF6], for which, in the data set with A549, the negative-log IC50 (pIC50) is 5.95 and the “activity factor IC50(1)/IC50(3a–4d), A549” value is given as “(1.96)”. In the data set with A549 (rounded value), the “increased cytotoxicity … A549” value stood at 2 fold. In the data set on Colo205, the pIC50 is 6.28 and the “activity factor IC50(1)/IC50(3a–4d), Colo205” value is reported as “(0.204)”. Further, in the data set with HepG2, the pIC50 was 6.34 and the “activity factor IC50(1)/IC50(3a–4d), HepG2” value is given as “(1.25)”. Further, in the data set with MCF7, the pIC50 is 6.19 and the “activity factor IC50(1)/IC50(3a–4d), MCF7” value is on record as “(0.354)”. Also, in the data set with SW620D, the pIC50 is 6.19 and the “activity factor IC50(1)/IC50(3a–4d), SW620D” value was “(1.74)”. Besides, the “higher cytotoxicity than corresponding amine 1, SW620D” value in the data set with SW620D (rounded value) was found to be 1.7 fold. Also, in the data set on SW620E, the pIC50 is 5.99 and the “activity factor IC50(1)/IC50(3a–4d), SW620E” value is “(0.819)”. This compound gave a KSP residual activity on KSP of 64.0%.
